This note sets out measurements from patent US20050208290A1, “Thick radiation sensitive devices” (priority 2003, published 2005).

This series is described as follows: preliminary toxicity study. The settings on record: no details given.

`CCCCCCNC(=O)OCC#CC#CCOC(=O)NCCCCCC` [compound 166, 2,4-hexadiyn-1,6-bis(n-hexylurethane)]: the toxicity entry is listed as “nontoxic”.
